Experimental data taken from ChEMBL document CHEMBL1201862, “PubChem BioAssay data set” (2004).
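Cultured in 96-well plates, cells were exposed to test compound for 48 hours across five concentrations. At the GI50, growth is halved.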 Calls of active or inactive are those of the source. No stated cut-off is given here; in the data, active = GI50 up to about 1.1 µM and inactive = higher.

What was measured:
Assay in all cases: growth of human tumour cells (NCI), 48 h
CAKI-1 = system: CAKI-1
A498 = system: A498
UACC-257 = system: UACC-257
MOLT-4 = system: MOLT-4
HOP-62 = system: HOP-62
IGROV-1 = system: IGROV-1
HL-60 = system: HL-60
NCI-H23 = system: NCI-H23
HCC 2998 = system: HCC 2998
SF-539 = system: SF-539
MDA-MB-231 = system: MDA-MB-231
OVCAR-5 = system: OVCAR-5
SW-620 = system: SW-620
UO-31 = system: UO-31
HOP-92 = system: HOP-92
K562 = system: K562
CCRF-CEM = system: CCRF-CEM
U-251 = system: U-251
NCI-H460 = system: NCI-H460
786-0 = system: 786-0

Structure (SMILES) | GI50 (CAKI-1) | GI50 (A498) | GI50 (UACC-257) | GI50 (MOLT-4) | GI50 (HOP-62) | GI50 (IGROV-1) | GI50 (HL-60) | GI50 (NCI-H23) | GI50 (HCC 2998) | GI50 (SF-539) | GI50 (MDA-MB-231) | GI50 (OVCAR-5) | GI50 (SW-620) | GI50 (UO-31) | GI50 (HOP-92) | GI50 (K562) | GI50 (CCRF-CEM) | GI50 (U-251) | GI50 (NCI-H460) | GI50 (786-0)
Nc1nc(N)c(-c2cccc(C(F)(F)F)c2)c(Cc2cccc(C(F)(F)F)c2)n1 | 7.23 µM (inactive) | 3.43 µM (inactive) | 3.43 µM (inactive) | 2.9 µM (inactive) | 6.05 µM (inactive) | 1.91 µM (inactive) | 2.2 µM (inactive) | 2.01 µM (inactive) | 3.1 µM (inactive) | 4.41 µM (inactive) | 13.1 µM (inactive) | 3.48 µM (inactive) | 7.33 µM (inactive) | 6.32 µM (inactive) | 12.2 µM (inactive) | 0.449 µM (active) | 6.92 µM (inactive) | 15.7 µM (inactive) | 0.604 µM (active) | 0.841 µM (active)
CN(C)CCCNc1ncnc2c1ncn2C1OC(CO)C(O)C1O (centres undefined) | > 100 µM (inactive) | > 100 µM (inactive) | > 100 µM (inactive) | 54.8 µM (inactive) | > 100 µM (inactive) | 93.5 µM (inactive) | > 100 µM (inactive) | > 100 µM (inactive) | > 100 µM (inactive) | > 100 µM (inactive) | > 100 µM (inactive) | > 100 µM (inactive) | > 100 µM (inactive) | > 100 µM (inactive) | > 100 µM (inactive) | > 100 µM (inactive) | > 100 µM (inactive) | > 100 µM (inactive) | > 100 µM (inactive) | > 100 µM (inactive)
CCOC(=O)CCC(NC(=O)c1ccc(Nc2nc3ccccc3nc2C(=O)OCC)s1)C(=O)OCC (centres undefined) | 81.3 µM (inactive) | > 100 µM (inactive) | > 100 µM (inactive) | > 100 µM (inactive) |  | > 100 µM (inactive) | 36.6 µM (inactive) |  | > 100 µM (inactive) | 63.4 µM (inactive) | 67.1 µM (inactive) | > 100 µM (inactive) | > 100 µM (inactive) | > 100 µM (inactive) | > 100 µM (inactive) | > 100 µM (inactive) |  | > 100 µM (inactive) | > 100 µM (inactive) | 21.7 µM (inactive)
CC1(C(O)c2ccccc2)CN(C(C)(C)C)C(=O)/C1=C\Sc1ccccc1 (centres undefined) | > 100 µM (inactive) | > 100 µM (inactive) | 24.9 µM (inactive) | 19.2 µM (inactive) | 99.1 µM (inactive) | 33.3 µM (inactive) | 24.7 µM (inactive) | > 100 µM (inactive) | 94.2 µM (inactive) | > 100 µM (inactive) | 53 µM (inactive) | > 100 µM (inactive) | 46.8 µM (inactive) | 29.7 µM (inactive) | 1.88 µM (inactive) | 42.1 µM (inactive) | 23.9 µM (inactive) | 22.6 µM (inactive) |  | 46 µM (inactive)
O=[N+]([O-])/C(Cl)=C(\Sc1ccccc1)C(Cl)=C(Cl)Cl | 1.83 µM (inactive) | 1.72 µM (inactive) | 0.404 µM (active) | 0.348 µM (active) | 2.06 µM (inactive) | 1.28 µM (inactive) | 0.273 µM (active) | 0.473 µM (active) | 1.93 µM (inactive) | 1.56 µM (inactive) | 0.264 µM (active) | 1.86 µM (inactive) |  | 0.284 µM (active) | 1.91 µM (inactive) | 0.294 µM (active) | 0.296 µM (active) | 1.29 µM (inactive) | 1.54 µM (inactive) | 0.308 µM (active)
Nc1nncc2[nH]cnc12 | 66.2 µM (inactive) | > 62.2 µM (inactive) | 63.5 µM (inactive) | 10.1 µM (inactive) | > 100 µM (inactive) | 57.8 µM (inactive) | 15 µM (inactive) |  | > 100 µM (inactive) | 94.4 µM (inactive) | 99.5 µM (inactive) | 49.3 µM (inactive) | 31 µM (inactive) | > 100 µM (inactive) | > 100 µM (inactive) | 7.01 µM (inactive) | 5.09 µM (inactive) | > 64.3 µM (inactive) | 90.6 µM (inactive) | 48.3 µM (inactive)
